Tests used:
[1] = molecular target: PAR1 (Homo sapiens (Human), UniProt P25116); conditions: ACS patients, phase III; cited from earlier work
[2] = molecular target: T1, PAR4 (Homo sapiens (Human), UniProt Q96RI0); assay: FLIPR assay in PAR4-expressing HEK293 cells (PAR4 antagonist activity, calcium mobilization); format: cell-based; conditions: H-Ala-Phe(4-F)-Pro-Gly-Trp-Leu-Val-Lys-Asn-Gly-NH2-induced calcium mobilization
Summary of the method: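 HEK293 EBNA cells stably expressing human PAR4 (also endogenous PAR1) preincubated 30 min at room temperature with compound in HBSS/10 mM HEPES, 0.67% DMSO final. PAR4 agonist peptide then added and intracellular calcium mobilization monitored by fluorescence.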

[3] = molecular target: T1, PAR4; assay: Gamma thrombin induced platelet aggregation assay (PRP assay); format: cell-based; conditions: human platelet rich plasma, 96-well microplate
Experimental: Platelet aggregation can be monitored in a 96-well microplate aggregation assay format or using standard platelet aggregometer.
The platelet rich plasma was isolated by centrifugation at 170 g for 14 minutes.
The ability of the compounds of the current invention to inhibit platelet aggregation induced by gamma-thrombin was tested in a 96-well microplate aggregation assay format. Briefly, PRP or washed platelet suspension (100 μl) was pre-incubated for 5 minutes at room temperature with varying concentrations of compounds. Aggregation was initiated by ˜10-50 nM gamma thrombin (Haematologic Technologies, Essex Junction, Vt.), which was titrated daily to achieve 80% platelet aggregation. Refludan at 1 U/mL (Berlex, Montville, N.J.) was added to the gamma thrombin sample to prevent PAR1 activation induced by residual alpha-thrombin contamination. The plate was then placed into a 37° C. Molecular Devices (Sunnyvale, Calif.) SPECTRAMAX® Plus Plate Reader. […] The plate also included an untreated control sample which served as ODmax, while buffer containing no platelets was the ODmin. Platelet aggregation was determined by subtracting the ODmax from the ODmin for the 100% aggregation value. In experimental samples, the observed transmission was subtracted from the minimum value and then compared to the 100% aggregation value to determine the percentage aggregation. IC50 values are determined using Excel Fit software.

T1 sequence (Q96RI0 18-385): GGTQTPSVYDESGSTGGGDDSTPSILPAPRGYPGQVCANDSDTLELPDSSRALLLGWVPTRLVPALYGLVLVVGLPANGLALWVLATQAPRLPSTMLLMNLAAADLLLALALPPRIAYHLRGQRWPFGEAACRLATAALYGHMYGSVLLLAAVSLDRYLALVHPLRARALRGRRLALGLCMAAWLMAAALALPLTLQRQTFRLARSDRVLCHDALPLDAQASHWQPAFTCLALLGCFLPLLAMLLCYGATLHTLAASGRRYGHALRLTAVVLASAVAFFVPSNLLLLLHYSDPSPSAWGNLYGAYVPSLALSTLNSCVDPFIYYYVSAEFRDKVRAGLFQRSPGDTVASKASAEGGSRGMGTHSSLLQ
PAR1, sequence (P25116 22-425): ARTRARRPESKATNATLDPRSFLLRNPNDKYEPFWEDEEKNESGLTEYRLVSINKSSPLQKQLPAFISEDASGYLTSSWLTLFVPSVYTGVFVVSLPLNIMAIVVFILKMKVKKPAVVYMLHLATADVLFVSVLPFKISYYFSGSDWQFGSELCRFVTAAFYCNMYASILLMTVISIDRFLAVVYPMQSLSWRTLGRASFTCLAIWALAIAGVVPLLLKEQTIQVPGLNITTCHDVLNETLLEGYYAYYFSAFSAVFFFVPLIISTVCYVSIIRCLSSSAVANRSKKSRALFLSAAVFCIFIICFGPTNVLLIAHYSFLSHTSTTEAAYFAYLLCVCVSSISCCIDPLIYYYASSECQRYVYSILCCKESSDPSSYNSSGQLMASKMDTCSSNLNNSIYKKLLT

Row | SMILES | cardiovascular events [1] | risk of major bleeding [1] | EC50 [2] [nM] | IC50 [3] [nM]
1 | CCOC(=O)N[C@@H]1CC[C@@H]2[C@@H](C1)C[C@H]1C(=O)O[C@H](C)[C@H]1[C@H]2/C=C/c1ccc(-c2cccc(F)c2)cn1 [vorapaxar] | did not significantly reduce cardiovascular events | significantly increased the risk of major bleeding |  | 
2 | COc1cc(OCc2csc(Br)n2)c2cc(-c3cn4nc(C)ccc4n3)oc2c1 [Example 205, 2-Bromo-4-(((6-methoxy-2-(6-methylimidazo[1,2-b]pyridazin-2-yl)benzofuran-4-yl)oxy)methyl)thiazole] |  |  | 3.5 | 2380
3 | COc1cc(OCc2csc(C3(c4ccc(C(=O)N(C)C)cc4)CCOCC3)n2)c2cc(-c3cn4nc(OC)sc4n3)oc2c1 [Example 161, 4-(4-(4-(((6-Methoxy-2-(2-methoxyimidazo[2,1-b][1,3,4]thiadiazol-6-yl)benzofuran-4-yl)oxy)methyl)thiazol-2-yl)tetrahydro-2H-pyran-4-yl)-N,N-dimethylbenzamide] |  |  | 0.69 | 27
4 | COc1cc(OCc2csc(N3CCC[C@@H]3C)n2)c2cc(-c3cn4nc(C)ccc4n3)oc2c1 [Example 274] |  |  | 3.4 | > 3000
5 | COc1cc(OCc2cscn2)c2cc(-c3cn4nc(OC)sc4n3)oc2c1 [Example 34] |  |  | 1.2 | 2320
6 | CCC(F)(c1nc(COc2cc(OC)cc3oc(-c4cn5nc(OC)sc5n4)cc23)cs1)C(F)(F)F (stereo not drawn) [Example 139] |  |  | 0.41 | 26
7 | COc1cc(OCc2csc(C3(O)CCC4(CC3)OCCO4)n2)c2cc(-c3cn4nc(OC)sc4n3)oc2c1 [Example 126, 8-(4-(((6-Methoxy-2-(2-methoxyimidazo[2,1-b][1,3,4]thiadiazol-6-yl)benzofuran-4-yl)oxy)methyl)-thiazol-2-yl)-1,4-dioxaspiro[4.5]decan-8-ol] |  |  | 0.33 | 1.9
8 | COc1cc(OCc2csc(NCCCN3CCCC3=O)n2)c2cc(-c3cn4nc(C)ccc4n3)oc2c1 [Example 254] |  |  | 19 | > 3000
9 | COc1cc(OCc2csc(-c3ccccc3)n2)c2cc(-c3cn4nc([C@H](C)F)sc4n3)oc2c1 [Example 192, (S)-2-(1-Fluoroethyl)-6-(6-methoxy-4-((2-phenylthiazol-4-yl)methoxy)benzofuran-2-yl)imidazo[2,1-b][1,3,4]thiadiazole] |  |  | 1.9 | 28
10 | COc1cc(OCc2nc(C3(O)CCOCC3)sc2C(F)(F)F)c2cc(-c3cn4nc(OC)sc4n3)oc2c1 [Example 131, 4-(4-(((6-Methoxy-2-(2-methoxyimidazo[2,1-b][1,3,4]thiadiazol-6-yl)benzofuran-4-yl)oxy)methyl)-5-(trifluoromethyl)thiazol-2-yl)tetrahydro-2H-pyran-4-ol] |  |  | 0.66 | > 3000
11 | CCc1sc(-c2ccc(C(=O)N(C)C)cc2)nc1COc1cc(OC)cc2oc(-c3cn4nc(OC)sc4n3)cc12 [Example 44, 4-(5-Ethyl-4-(((6-methoxy-2-(2-methoxyimidazo[2,1-b][1,3,4]thiadiazol-6-yl)benzofuran-4-yl)oxy)methyl)thiazol-2-yl)-N,N-dimethylbenzamide] |  |  | 0.9 | 2
12 | COc1cc(OCc2csc(N3CCN(CCO)CC3)n2)c2cc(-c3cn4nc(C)ccc4n3)oc2c1 [Example 243] |  |  | 32 | > 3000
13 | COc1cc(OCc2csc(N3CCN(c4ccc(C)cn4)CC3)n2)c2cc(-c3cn4nc(C)ccc4n3)oc2c1 [Example 285] |  |  | 2.9 | 2340
14 | COc1cc(OCc2csc(NCCN3CCOCC3)n2)c2cc(-c3cn4nc(C)ccc4n3)oc2c1 [Example 244] |  |  | 909 | > 3000
15 | COc1cc(OCc2csc(-c3ccc(C)nc3)n2)c2cc(-c3cn4nc(OC)sc4n3)oc2c1 [Example 74] |  |  | 0.56 | 0.96
16 | COc1cc(OCc2csc(Nc3ccc4scnc4c3)n2)c2cc(-c3cn4nc(C)ccc4n3)oc2c1 [Example 281] |  |  | 0.6 | > 3000
17 | CC(F)(F)c1nn2cc(-c3cc4c(OCc5csc(-c6ccccc6)n5)nccc4o3)nc2s1 [Example 202, 2-(2-(1,1-Difluoroethyl)imidazo[2,1-b][1,3,4]thiadiazol-6-yl)-4-((2-phenylthiazol-4-yl)methoxy)furo[3,2-c]pyridine] |  |  | 43 | > 3000
18 | COCCOCc1nc(COc2cc(OC)cc3oc(-c4cn5nc(OC)sc5n4)cc23)cs1 [Example 6, 2-Methoxy-6-(6-methoxy-4-((2-((2-methoxyethoxy)methyl)thiazol-4-yl)methoxy)benzofuran-2-yl)imidazo[2,1-b][1,3,4]thiadiazole] |  |  | 0.68 | 2030
19 | COCCN(C)C(=O)c1ccc(-c2nc(COc3cc(OC)cc4oc(-c5cn6nc(OC)sc6n5)cc34)cs2)cc1 [Example 39] |  |  | 0.46 | 2.1
20 | COc1cc(OCc2csc(C3(O)CCC(C(=O)N4CCCC4)CC3)n2)c2cc(-c3cn4nc(OC)sc4n3)oc2c1 (stereo not drawn) [Example 151, (4-Hydroxy-4-(4-(((6-methoxy-2-(2-methoxyimidazo[2,1-b][1,3,4]thiadiazol-6-yl)benzofuran-4-yl)oxy)methyl)thiazol-2-yl)cyclohexyl)(pyrrolidin-1-yl)methanone] |  |  | 0.84 | 26
21 | COc1cc(OCc2csc(-c3ccc(C(=O)NCC(F)(F)F)cc3)n2)c2cc(-c3cn4nc(OC)sc4n3)oc2c1 [Example 305] |  |  | 1 | 2
22 | COc1cc(OCc2nc(N)sc2C)c2cc(-c3cn4nc(OC)sc4n3)oc2c1 [Example 87, 4-(((6-Methoxy-2-(2-methoxyimidazo[2,1-b][1,3,4]thiadiazol-6-yl)benzofuran-4-yl)oxy)methyl)-5-methylthiazol-2-amine] |  |  | 24 | > 3000
23 | COc1cc(OCc2csc(Nc3cc(C)cc(C)n3)n2)c2cc(-c3cn4nc(C)ccc4n3)oc2c1 [Example 264] |  |  | 207 | > 3000
24 | COc1cc(OCc2csc(N3CCN(c4cccc(Cl)c4)CC3)n2)c2cc(-c3cn4nc(C)ccc4n3)oc2c1 [Example 268] |  |  | 1.7 | 2360
25 | COc1cc(OCc2csc(N3CCC4(CC3)OCCO4)n2)c2cc(-c3cn4nc(OC)sc4n3)oc2c1 [Example 103, 8-(4-(((6-Methoxy-2-(2-methoxyimidazo[2,1-b][1,3,4]thiadiazol-6-yl)benzofuran-4-yl)oxy)methyl)thiazol-2-yl)-1,4-dioxa-8-azaspiro[4.5]decane] |  |  | 0.31 | 24
26 | COc1cc(OCc2csc(C3(O)CCC(C(=O)N(C)CC#N)CC3)n2)c2cc(-c3cn4nc(OC)sc4n3)oc2c1 (stereo not drawn) [Example 152, N-(Cyanomethyl)-4-hydroxy-4-(4-(((6-methoxy-2-(2-methoxyimidazo[2,1-b][1,3,4]thiadiazol-6-yl)benzofuran-4-yl)oxy)methyl)thiazol-2-yl)-N-methylcyclohexanecarboxamide] |  |  | 0.68 | 28
27 | COc1cc(OCc2csc(Nc3ccc(F)c(C)n3)n2)c2cc(-c3cn4nc(C)ccc4n3)oc2c1 [Example 282] |  |  | 3480 | > 3000
28 | CCC(F)(CC)c1nc(COc2cc(OC)cc3oc(-c4cn5nc(OC)sc5n4)cc23)cs1 [Example 141] |  |  | 0.47 | 24
29 | COc1cc(OCc2csc(-c3ccc(Cl)cc3)n2)c2cc(-c3cn4nc(C)ccc4n3)oc2c1 [Example 209, 2-(4-Chlorophenyl)-4-(((6-methoxy-2-(6-methylimidazo[1,2-b]pyridazin-2-yl)benzofuran-4-yl)oxy)methyl)thiazole] |  |  | 1.2 | 23
30 | COc1cc(OCc2csc(NCc3cccnc3)n2)c2cc(-c3cn4nc(C)ccc4n3)oc2c1 [Example 245] |  |  | 5.5 | 3130

— patent US9688695B2, “Imidazothiadiazole and imidazopyrazine derivatives as protease activated receptor 4 (PAR4) inhibitors for treating platelet aggregation” (BRISTOL-MYERS SQUIBB COMPANY, priority 2012, dated 2017)
